What was measured:
NCI-H64 = assay: cells; assay type: functional, cell-based, Homo sapiens; settings: Homo sapiens, NCI-H64;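 further: growth inhibition of NCI-H64 cells, read out with a cell viability assay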
Description: SANGER: Inhibition of human NCI-H64 cell growth in a cell viability assay.

ECC4 = assay: cells; assay type: functional, cell-based, Homo sapiens; settings: Homo sapiens, ECC4;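 further: growth inhibition of ECC4 cells, read out with a cell viability assay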
Description: SANGER: Inhibition of human ECC4 cell growth in a cell viability assay.

NCI-H1522 = assay: cells; assay type: functional, cell-based, Homo sapiens; settings: Homo sapiens, NCI-H1522;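 further: growth inhibition of NCI-H1522 cells, read out with a cell viability assay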
Description: SANGER: Inhibition of human NCI-H1522 cell growth in a cell viability assay.

MOLT-13 = assay: cells; assay type: functional, cell-based; settings: Homo sapiens;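 further: IC50 for suppression of MOLT-13 cell growth, read out with a cell viability assay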
Description: SANGER: Inhibition of human MOLT-13 cell growth in a cell viability assay.

THP-1 = assay: cells; assay type: functional, cell-based, Homo sapiens; settings: Homo sapiens, THP-1;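 further: growth inhibition of THP-1 cells, read out via a cell viability assay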
Description: SANGER: Inhibition of human THP-1 cell growth in a cell viability assay.

BC1 cell line = assay: SANGER: Inhibition of human BC-1 cell growth in a cell viability assay.; assay type: functional, cell-based; settings: Homo sapiens, BC1
MONO-MAC-6 = assay: cells; assay type: functional, cell-based, Homo sapiens; settings: Homo sapiens, MONO-MAC-6;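 further: cell viability assay measuring growth inhibition of human MONO-MAC-6 cells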
Description: SANGER: Inhibition of human MONO-MAC-6 cell growth in a cell viability assay.

LC-1F = assay: cells; assay type: functional, cell-based, Homo sapiens; settings: Homo sapiens, LC-1F;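 further: growth inhibition of human LC-1F cells, read out with a cell viability assay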
Description: SANGER: Inhibition of human LC-1F cell growth in a cell viability assay.

ARH-77 = assay: cells; assay type: functional, cell-based, Homo sapiens; settings: Homo sapiens, ARH-77;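 further: growth inhibition of ARH-77 cells, read out by a cell viability assay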
Description: SANGER: Inhibition of human ARH-77 cell growth in a cell viability assay.

MDA-MB-134-VI = assay: cells; assay type: functional, cell-based, Homo sapiens; settings: Homo sapiens, MDA-MB-134-VI
Description: SANGER: Inhibition of human MDA-MB-134-VI cell growth in a cell viability assay.

Raji = assay: cells; assay type: functional, cell-based, Homo sapiens; settings: Homo sapiens, Raji;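 further: cell viability assay measuring inhibition of Raji cell growth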
Description: SANGER: Inhibition of human Raji cell growth in a cell viability assay.

SCC-3 = assay: cells; assay type: functional, cell-based, Homo sapiens; settings: Homo sapiens, SCC-3;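 further: cell viability assay measuring inhibition of SCC-3 cell growth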
Description: SANGER: Inhibition of human SCC-3 cell growth in a cell viability assay.

KMOE-2 = assay: cells; assay type: functional, cell-based, Homo sapiens; settings: Homo sapiens, KMOE-2;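 further: growth inhibition of human KMOE-2 cells, read out with a cell viability assay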
Description: SANGER: Inhibition of human KMOE-2 cell growth in a cell viability assay.

LB647-SCLC = assay: cells; assay type: functional, cell-based, Homo sapiens; settings: Homo sapiens, LB647-SCLC;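 further: cell growth inhibition, read out by a viability assay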
Description: SANGER: Inhibition of human LB647-SCLC cell growth in a cell viability assay.

LC4-1 = assay: cells; assay type: functional, cell-based, Homo sapiens; settings: Homo sapiens, LC4-1;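 further: growth inhibition of LC4-1 cells, read out with a cell viability assay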
Description: SANGER: Inhibition of human LC4-1 cell growth in a cell viability assay.

TE-441-T = assay: cells; assay type: functional, cell-based, Homo sapiens; settings: Homo sapiens, TE-441-T
Description: SANGER: Inhibition of human TE-441-T cell growth in a cell viability assay.

DG-75 = assay: cells; assay type: functional, cell-based, Homo sapiens; settings: Homo sapiens, DG-75;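 further: growth inhibition of DG-75 cells, read out with a cell viability assay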
Description: SANGER: Inhibition of human DG-75 cell growth in a cell viability assay.

LOUCY = assay: cells; assay type: functional, cell-based, Homo sapiens; settings: Homo sapiens, LOUCY;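 further: growth inhibition of human LOUCY cells, read out with a cell viability assay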
Description: SANGER: Inhibition of human LOUCY cell growth in a cell viability assay.

NB14 = assay: cells; assay type: functional, cell-based, Homo sapiens; settings: Homo sapiens, NB14;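 further: growth inhibition of NB14 cells measured with a cell viability assay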
Description: SANGER: Inhibition of human NB14 cell growth in a cell viability assay.

CESS = assay: SANGER: Inhibition of human CESS cell growth in a cell viability assay.; assay type: functional, cell-based; settings: Homo sapiens, CESS
HuCCT-1 = assay: cells; assay type: functional, cell-based, HuCCT1; settings: Homo sapiens;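 further: growth inhibition of HuCCT-1 cells, read out by a cell viability assay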
Description: SANGER: Inhibition of human HuCCT1 cell growth in a cell viability assay.

SF-295 = assay: cells; assay type: functional, cell-based; settings: Homo sapiens;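 further: growth inhibition of SF-295 cells, read out with a cell viability assay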
Description: SANGER: Inhibition of human SF295 cell growth in a cell viability assay.

CaR-1 = assay: cells; assay type: functional, cell-based; settings: Homo sapiens;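 further: growth inhibition of human CaR-1 cancer cells, read out with a cell viability assay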
Description: SANGER: Inhibition of human CaR-1 cell growth in a cell viability assay.

Detroit 562 = assay: cells; assay type: functional, cell-based; settings: Homo sapiens;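 further: growth inhibition of human Detroit 562 cells, read out by a cell viability assay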
Description: SANGER: Inhibition of human Detroit562 cell growth in a cell viability assay.

GAMG = assay: cells; assay type: functional, cell-based; settings: Homo sapiens;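 further: cell growth inhibition measured by a viability assay in the GAMG human cell line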
Description: SANGER: Inhibition of human GAMG cell growth in a cell viability assay.

H4 = assay: cells; assay type: functional, cell-based; settings: Homo sapiens
Description: SANGER: Inhibition of human H4 cell growth in a cell viability assay.

JEG-3 = assay: cells; assay type: functional, cell-based; settings: Homo sapiens;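 further: growth inhibition of human JEG-3 cells, read out with a cell viability assay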
Description: SANGER: Inhibition of human JEG-3 cell growth in a cell viability assay.

CAL-120 = assay: cells; assay type: functional, cell-based; settings: Homo sapiens;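 further: cell growth inhibition, read out as cell viability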
Description: SANGER: Inhibition of human CAL-120 cell growth in a cell viability assay.

HGC-27 = assay: cells; assay type: functional, cell-based; settings: Homo sapiens;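 further: growth inhibition of human HGC-27 cells, read out in a cell viability assay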
Description: SANGER: Inhibition of human HGC-27 cell growth in a cell viability assay.

KYSE-510 = assay: cells; assay type: functional, cell-based; settings: Homo sapiens;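 further: cell viability readout used to measure how strongly growth of the cell line is suppressed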
Description: SANGER: Inhibition of human KYSE-510 cell growth in a cell viability assay.

DoTc2-4510 = assay: cells; assay type: functional, cell-based; settings: Homo sapiens
HCC1937 = assay: cells; assay type: functional, cell-based; settings: Homo sapiens;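 further: growth inhibition measured with a cell viability read-out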
Description: SANGER: Inhibition of human HCC1937 cell growth in a cell viability assay.

PANC-08-13 = assay: cells; assay type: functional, cell-based; settings: Homo sapiens
Description: SANGER: Inhibition of human PANC-08-13 cell growth in a cell viability assay.

UMC-11 = assay: cells; assay type: functional, cell-based; settings: Homo sapiens;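 further: growth inhibition of UMC-11 cells, read out with a cell viability assay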
Description: SANGER: Inhibition of human UMC-11 cell growth in a cell viability assay.

HT1197 = assay: cells; assay type: functional, cell-based, HT-1197; settings: Homo sapiens
Description: SANGER: Inhibition of human HT-1197 cell growth in a cell viability assay.

HuP-T4 = assay: cells; assay type: functional, cell-based; settings: Homo sapiens;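 further: cell viability assay measuring how much HuP-T4 cell growth is inhibited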
Description: SANGER: Inhibition of human HuP-T4 cell growth in a cell viability assay.

NCI-H2405 = assay: cells; assay type: functional, cell-based; settings: Homo sapiens;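 further: growth inhibition of the human cell line, read out with a cell viability assay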
Description: SANGER: Inhibition of human NCI-H2405 cell growth in a cell viability assay.

KYSE-140 = assay: cells; assay type: functional, cell-based; settings: Homo sapiens;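 further: cell viability assay measuring growth inhibition in human KYSE-140 cells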
Description: SANGER: Inhibition of human KYSE-140 cell growth in a cell viability assay.

BPH-1 = assay: cells; assay type: functional, cell-based; settings: Homo sapiens;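 further: cell viability assay measuring growth inhibition of human BPH-1 cells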
Description: SANGER: Inhibition of human BPH-1 cell growth in a cell viability assay.

PFSK-1 = assay: cells; assay type: functional, cell-based; settings: Homo sapiens;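 further: cell viability assay measuring how strongly compounds suppress growth of human PFSK-1 cells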
Description: SANGER: Inhibition of human PFSK-1 cell growth in a cell viability assay.

639-V = assay: cells; assay type: functional, cell-based; settings: Homo sapiens;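 further: growth inhibition of 639-V cells, read out with a cell viability assay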
Description: SANGER: Inhibition of human 639-V cell growth in a cell viability assay.

NCI-H727 = assay: cells; assay type: functional, cell-based; settings: Homo sapiens;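 further: growth inhibition of human NCI-H727 cells, read out with a cell viability assay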
Description: SANGER: Inhibition of human NCI-H727 cell growth in a cell viability assay.

LN-405 = assay: cells; assay type: functional, cell-based; settings: Homo sapiens
Description: SANGER: Inhibition of human LN-405 cell growth in a cell viability assay.

A673 = assay: cells; assay type: functional, cell-based; settings: Homo sapiens;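 further: growth inhibition of human A673 cells, read out through a cell viability assay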
Description: SANGER: Inhibition of human A673 cell growth in a cell viability assay.

NCI-H2170 = assay: cells; assay type: functional, cell-based; settings: Homo sapiens;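 further: cell viability assay measuring growth inhibition of human NCI-H2170 cancer cells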
Description: SANGER: Inhibition of human NCI-H2170 cell growth in a cell viability assay.

RPMI-2650 = assay: cells; assay type: functional, cell-based; settings: Homo sapiens
Description: SANGER: Inhibition of human RPMI-2650 cell growth in a cell viability assay.

COLO-680N = assay: cells; assay type: functional, cell-based; settings: Homo sapiens;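 further: cell viability assay used to measure inhibition of COLO-680N cell growth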
Description: SANGER: Inhibition of human COLO-680N cell growth in a cell viability assay.

T47D = assay: cells; assay type: functional, cell-based; settings: Homo sapiens;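 further: growth inhibition of human T47D cells, measured with a cell viability assay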
Description: SANGER: Inhibition of human T47D cell growth in a cell viability assay.

HLE = assay: cells; assay type: functional, cell-based; settings: Homo sapiens;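 further: growth inhibition of human HLE cells, read out by a cell viability assay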
Description: SANGER: Inhibition of human HLE cell growth in a cell viability assay.

NUGC-3 = assay: cells; assay type: functional, cell-based; settings: Homo sapiens;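 further: growth inhibition of human NUGC-3 cells, read out with a cell viability assay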
Description: SANGER: Inhibition of human NUGC-3 cell growth in a cell viability assay.

HSC-3 = assay: cells; assay type: functional, cell-based; settings: Homo sapiens
Description: SANGER: Inhibition of human HSC-3 cell growth in a cell viability assay.

NCI-H2122 = assay: cells; assay type: functional, cell-based; settings: Homo sapiens;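 further: growth inhibition of the cells, read out with a cell viability assay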
Description: SANGER: Inhibition of human NCI-H2122 cell growth in a cell viability assay.

SW948 = assay: cells; assay type: functional, cell-based; settings: Homo sapiens;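 further: growth inhibition of SW948 cells, read out with a cell viability assay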
Description: SANGER: Inhibition of human SW948 cell growth in a cell viability assay.

AU565 = assay: cells; assay type: functional, cell-based; settings: Homo sapiens;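 further: cell viability assay measuring growth inhibition of human AU565 cells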
Description: SANGER: Inhibition of human AU565 cell growth in a cell viability assay.

GCT = assay: cells; assay type: functional, cell-based; settings: Homo sapiens;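 further: GCT cell line proliferation inhibition, read out with a cell viability assay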
Description: SANGER: Inhibition of human GCT cell growth in a cell viability assay.

UMUC3 = assay: cells; assay type: functional, cell-based; settings: Homo sapiens;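 further: growth inhibition of human UM-UC-3 cells, read out with a cell viability assay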
Description: SANGER: Inhibition of human UM-UC-3 cell growth in a cell viability assay.

COLO-678 = assay: cells; assay type: functional, cell-based; settings: Homo sapiens
Description: SANGER: Inhibition of human COLO-678 cell growth in a cell viability assay.

Nc1ccccc1NC(=O)c1ccc(CNC(=O)OCc2cccnc2)cc1 [ENTINOSTAT]
IC50 (NCI-H64): 1280 nM | IC50 (ECC4): 3970 nM | IC50 (NCI-H1522): 2220 nM | IC50 (MOLT-13): 338 nM | IC50 (THP-1): > 5000 nM | IC50 (BC1 cell line): 434 nM | IC50 (MONO-MAC-6): 388 nM | IC50 (LC-1F): 1120 nM | IC50 (ARH-77): 382 nM | IC50 (MDA-MB-134-VI): 1290 nM | IC50 (Raji): > 5000 nM | IC50 (SCC-3): 61 nM | IC50 (KMOE-2): 2880 nM | IC50 (LB647-SCLC): 367 nM | IC50 (LC4-1): 840 nM | IC50 (TE-441-T): > 5000 nM | IC50 (DG-75): 2270 nM | IC50 (LOUCY): 634 nM | IC50 (NB14): 726 nM | IC50 (CESS): 812 nM

CC1(C)CCC(c2ccc(Cl)cc2)=C(CN2CCN(c3ccc(C(=O)NS(=O)(=O)c4ccc(N[C@H](CCN5CCOCC5)CSc5ccccc5)c(S(=O)(=O)C(F)(F)F)c4)cc3)CC2)C1 [NAVITOCLAX]
IC50 (HuCCT-1): > 2000 nM | IC50 (SF-295): > 2000 nM | IC50 (CaR-1): > 2000 nM | IC50 (MOLT-13): 466 nM | IC50 (Detroit 562): > 2000 nM | IC50 (GAMG): > 2000 nM | IC50 (H4): > 2000 nM | IC50 (JEG-3): > 2000 nM | IC50 (CAL-120): 1160 nM | IC50 (HGC-27): > 2000 nM | IC50 (KYSE-510): > 2000 nM | IC50 (DoTc2-4510): > 2000 nM | IC50 (HCC1937): > 2000 nM | IC50 (PANC-08-13): > 2000 nM | IC50 (UMC-11): > 2000 nM | IC50 (HT1197): > 2000 nM | IC50 (HuP-T4): > 2000 nM | IC50 (NCI-H2405): > 2000 nM | IC50 (KYSE-140): > 2000 nM | IC50 (BPH-1): > 2000 nM | IC50 (PFSK-1): > 2000 nM | IC50 (639-V): > 2000 nM | IC50 (NCI-H727): > 2000 nM | IC50 (LN-405): > 2000 nM | IC50 (A673): > 2000 nM | IC50 (NCI-H2170): 1060 nM | IC50 (RPMI-2650): > 2000 nM | IC50 (COLO-680N): > 2000 nM | IC50 (T47D): > 2000 nM | IC50 (HLE): > 2000 nM | IC50 (NUGC-3): > 2000 nM | IC50 (HSC-3): 1960 nM | IC50 (NCI-H2122): > 2000 nM | IC50 (SW948): > 2000 nM | IC50 (AU565): > 2000 nM | IC50 (GCT): > 2000 nM | IC50 (UMUC3): > 2000 nM | IC50 (COLO-678): > 2000 nM | IC50 (NB14): 1140 nM
